Bridge positions count the residues as written; N and C are the ends. Square brackets hold non-standard residues; d marks the D form. Ends that are not written are not given here. Met(O) = CS(=O)CC[C@H](N)C(=O)O
How the values were obtained:
Type in all cases: in vivo, Kunming white mice
normal mice [1] = experiment: Hypoglycemic effect of synthetic polypeptides on normal mice after subcutaneous injection (Example 9); conditions: 1 mg/mL at 0.05 ml/10 g, single subcutaneous injection on the back; for Blood glucose level prior to administration: baseline
normal mice [2] = experiment: Hypoglycemic effect on normal mice after tail vein, subcutaneous and intramuscular injection (Example 8); conditions: 1 mg/mL at 0.05 ml/10 g once; for Blood glucose level prior to administration: baseline
normal mice [3] = experiment: Hypoglycemic effect of polypeptides on normal mice after tail vein injection (Example 4); conditions: 1 mg/mL at 0.05 ml/10 g, single tail vein injection; for Blood glucose level prior to administration: baseline
normal mice [4] = experiment: Hypoglycemic effect on normal mice after subcutaneous injection on the back (Example 5); conditions: for Blood glucose level at 15 min after administration / Blood glucose level at 30 min after administration / Blood glucose level at 45 min after administration / Blood glucose level at 60 min after administration / Blood glucose level prior to administration: single subcutaneous injection on the back; for Blood glucose level prior to administration: baseline
normal mice [5] = experiment: Polypeptide vs insulin on normal mice after tail vein injection (Example 10)
[6] = Group B, subcutaneous injection on the back
[7] = Group C, intramuscular injection in the lateral thigh
[8] = Group A high-dose, 1 mg/mL at 0.10 ml/10 g
[9] = Group B medium-dose, 1 mg/mL at 0.05 ml/10 g
[10] = Group C low-dose, 1 mg/mL at 0.025 ml/10 g
[11] = single tail vein injection, polypeptide 2 mg/mL at 0.05 ml/10 g (10 mg/kg), insulin 0.5 U/mL (2.5 U/kg)

Substance | Blood glucose level at 15 min after administration (normal mice [1]) [mmol/L] | Blood glucose level at 30 min after administration (normal mice [1]) [mmol/L] | Blood glucose level at 45 min after administration (normal mice [1]) [mmol/L] | Blood glucose level at 60 min after administration (normal mice [1]) [mmol/L] | Blood glucose level prior to administration (normal mice [1]) [mmol/L] | further results
VSCNGVCSPFDIPPCGTPACRCIPYGLFVGNCRNPYG (disulfide 15-32, 3-20, 7-22) [SEQ ID No. 52] | 6.4 ± 0.4 | 5.4 ± 0.5 | 4.3 ± 0.3 | 2.9 ± 0.3 | 7.1 ± 0.3 | 
ASCNGVCSPFEMPPCGTSACRCIPVGLVIGYCRNPSG (disulfide 15-32, 3-20, 7-22; listed as Pisum sativum) [SEQ ID No. 3] |  |  |  |  |  | Blood glucose level at 15 min after administration (normal mice [2]; Group A, tail vein injection): 5.6 ± 0.3 mmol/L; Blood glucose level at 30 min after administration (normal mice [2]; Group A, tail vein injection): 4.5 ± 0.2 mmol/L; Blood glucose level at 45 min after administration (normal mice [2]; Group A, tail vein injection): 3.2 ± 0.1 mmol/L; Blood glucose level at 60 min after administration (normal mice [2]; Group A, tail vein injection): 2.4 ± 0.2 mmol/L; Blood glucose level prior to administration (normal mice [2]; Group A, tail vein injection): 7.3 ± 0.5 mmol/L; Blood glucose level at 15 min after administration (normal mice [2]; [6]): 5.2 ± 0.2 mmol/L; Blood glucose level at 30 min after administration (normal mice [2]; [6]): 3.5 ± 0.3 mmol/L; Blood glucose level at 45 min after administration (normal mice [2]; [6]): 2.8 ± 0.2 mmol/L; Blood glucose level at 60 min after administration (normal mice [2]; [6]): 2.1 ± 0.1 mmol/L; Blood glucose level prior to administration (normal mice [2]; [6]): 6.2 ± 0.3 mmol/L; Blood glucose level at 15 min after administration (normal mice [2]; [7]): 6.3 ± 0.5 mmol/L; Blood glucose level at 30 min after administration (normal mice [2]; [7]): 4.8 ± 0.4 mmol/L; Blood glucose level at 45 min after administration (normal mice [2]; [7]): 3.5 ± 0.3 mmol/L; Blood glucose level at 60 min after administration (normal mice [2]; [7]): 2.6 ± 0.2 mmol/L; Blood glucose level prior to administration (normal mice [2]; [7]): 8.1 ± 0.7 mmol/L
ASCNGVCSPFEMoxPPCGTSACRCIPVGLVVGYCRNPSG (ASCNGVCSPFE[Met(O)]PPCGTSACRCIPVGLVVGYCRNPSG; disulfide 15-32, 3-20, 7-22; listed as Pisum sativum) [SEQ ID No. 2] |  |  |  |  |  | Blood glucose level at 15 min after administration (normal mice [3]): 6.5 ± 0.2 mmol/L; Blood glucose level at 30 min after administration (normal mice [3]): 4.6 ± 0.3 mmol/L; Blood glucose level prior to administration (normal mice [3]): 7.2 ± 0.3 mmol/L
ASCNGVCSPFEMoxPPCGTSACRCIPVGLFIGYCRNPSG (ASCNGVCSPFE[Met(O)]PPCGTSACRCIPVGLFIGYCRNPSG; disulfide 15-32, 3-20, 7-22; listed as Pisum sativum) [SEQ ID No. 8] |  |  |  |  |  | Blood glucose level at 15 min after administration (normal mice [4]; [8]): 5.1 ± 0.4 mmol/L; Blood glucose level at 30 min after administration (normal mice [4]; [8]): 3.0 ± 0.4 mmol/L; Blood glucose level at 45 min after administration (normal mice [4]; [8]): 2.2 ± 0.2 mmol/L; Blood glucose level at 60 min after administration (normal mice [4]; [8]): 1.7 ± 0.1 mmol/L; Blood glucose level prior to administration (normal mice [4]; [8]): 7.4 ± 0.5 mmol/L; Blood glucose level at 15 min after administration (normal mice [4]; [9]): 5.2 ± 0.4 mmol/L; Blood glucose level at 30 min after administration (normal mice [4]; [9]): 4.3 ± 0.5 mmol/L; Blood glucose level at 45 min after administration (normal mice [4]; [9]): 3.2 ± 0.3 mmol/L; Blood glucose level at 60 min after administration (normal mice [4]; [9]): 2.6 ± 0.2 mmol/L; Blood glucose level prior to administration (normal mice [4]; [9]): 7.1 ± 0.6 mmol/L; Blood glucose level at 15 min after administration (normal mice [4]; [10]): 6.2 ± 0.3 mmol/L; Blood glucose level at 30 min after administration (normal mice [4]; [10]): 4.9 ± 0.3 mmol/L; Blood glucose level at 45 min after administration (normal mice [4]; [10]): 3.8 ± 0.2 mmol/L; Blood glucose level at 60 min after administration (normal mice [4]; [10]): 4.6 ± 0.2 mmol/L; Blood glucose level prior to administration (normal mice [4]; [10]): 7.3 ± 0.4 mmol/L; hypoglycemic activity (conclusion) (normal mice [4]; normal mice, subcutaneous injection): explicit hypoglycemic activity
ASCNGVCSPFEIPPCGSPLCRCIPVGLVIGNCRNPYG (disulfide 15-32, 3-20, 7-22) [SEQ ID No. 21] | 6.7 ± 0.4 | 5.2 ± 0.3 | 4.3 ± 0.2 | 3.6 ± 0.1 | 7.8 ± 0.4 | 
ASCNGVCSPFEMoxPPCGTSACRCIPVGLVIGYCRNPSG (ASCNGVCSPFE[Met(O)]PPCGTSACRCIPVGLVIGYCRNPSG; disulfide 15-32, 3-20, 7-22; listed as Pisum sativum) [SEQ ID No. 4] |  |  |  |  |  | Blood glucose level at 15 min after administration (normal mice [3]): 6.9 ± 0.4 mmol/L; Blood glucose level at 30 min after administration (normal mice [3]): 4.6 ± 0.3 mmol/L; Blood glucose level prior to administration (normal mice [3]): 7.5 ± 0.5 mmol/L
ASCNGVCSPFDIPPCGTPLCRCIPVGLVIGNCRNPYG (disulfide 15-32, 3-20, 7-22) [SEQ ID No. 13] | 6.1 ± 0.3 | 4.4 ± 0.4 | 3.5 ± 0.3 | 2.6 ± 0.3 | 7.4 ± 0.6 | 
ISCNGVCSPFEMPPCGTSLCRCIPAGLVVGYCRNPSG (disulfide 15-32, 3-20, 7-22) [SEQ ID No. 50] | 6.2 ± 0.5 | 5.3 ± 0.2 | 4.6 ± 0.3 | 3.2 ± 0.3 | 7.3 ± 0.6 | 
ISCNGVCSPFEIPPCGSSLCRCIPAGLLVGKCRNPSG (disulfide 15-32, 3-20, 7-22) [SEQ ID No. 44] | 6.3 ± 0.3 | 5.5 ± 0.2 | 3.8 ± 0.3 | 2.6 ± 0.2 | 7.2 ± 0.3 | 
ISCNGVCSPFDIPPCGSPLCRCIPAGLVIGNCRNPYG (disulfide 15-32, 3-20, 7-22; listed as Pisum sativum) [SEQ ID No. 11] |  |  |  |  |  | hypoglycemic effect compared with insulin (normal mice [5]; polypeptide 10 mg/kg vs insulin 2.5 U/kg, tail vein injection): the same hypoglycemic effect on normal mice as insulin; Blood glucose level at 15 min after administration (normal mice [5]; [11]): 4.1 ± 0.3 mmol/L; Blood glucose level at 30 min after administration (normal mice [5]; [11]): 2.8 ± 0.2 mmol/L; Blood glucose level at 45 min after administration (normal mice [5]; [11]): 2.2 ± 0.1 mmol/L; Blood glucose level at 60 min after administration (normal mice [5]; [11]): 2.0 ± 0.1 mmol/L; Blood glucose level prior to administration (normal mice [5]; single tail vein injection, polypeptide 2 mg/mL at 0.05 ml/10 g (10 mg/kg), insulin 0.5 U/mL (2.5 U/kg), baseline): 8.2 ± 0.5 mmol/L
VSCNGVCSPFEMPPCGSSACRCIPYGLVVGNCRNPSG (disulfide 15-32, 3-20, 7-22) [SEQ ID No. 68] | 5.5 ± 0.4 | 4.2 ± 0.3 | 3.4 ± 0.4 | 2.2 ± 0.1 | 6.7 ± 0.6 | 
ASCNGVCSPFEMPPCGSSACRCIPVGLLIGYCRNPSG (disulfide 15-32, 3-20, 7-22; listed as Pisum sativum) [SEQ ID No. 5] |  |  |  |  |  | Blood glucose level at 15 min after administration (normal mice [3]): 6.3 ± 0.3 mmol/L; Blood glucose level at 30 min after administration (normal mice [3]): 5.3 ± 0.3 mmol/L; Blood glucose level prior to administration (normal mice [3]): 7.1 ± 0.5 mmol/L
VSCNGVCSPFEIPPCGSPLCRCIPAGLVIGNCRNPYG (disulfide 15-32, 3-20, 7-22) [SEQ ID No. 63] | 5.9 ± 0.5 | 4.6 ± 0.4 | 3.2 ± 0.3 | 3.5 ± 0.2 | 6.6 ± 0.6 | 
ASCNGVCSPFDMPPCGTSACRCIPAGLFIGKCRNPYG (disulfide 15-32, 3-20, 7-22) [SEQ ID No. 17] | 6.6 ± 0.5 | 4.9 ± 0.4 | 3.6 ± 0.3 | 3.0 ± 0.2 | 8.2 ± 0.7 | 
ISCNGVCSPFDMPPCGSPACRCIPAGLLIGYCRNPSG (disulfide 15-32, 3-20, 7-22) [SEQ ID No. 38] | 4.9 ± 0.3 | 3.6 ± 0.4 | 3.1 ± 0.2 | 3.5 ± 0.3 | 6.3 ± 0.5 | 
ASCNGVCSPFEMoxPPCGSSACRCIPVGLLIGYCRNPSG (ASCNGVCSPFE[Met(O)]PPCGSSACRCIPVGLLIGYCRNPSG; disulfide 15-32, 3-20, 7-22; listed as Pisum sativum) [SEQ ID No. 6] |  |  |  |  |  | Blood glucose level at 15 min after administration (normal mice [3]): 5.6 ± 0.3 mmol/L; Blood glucose level at 30 min after administration (normal mice [3]): 4.2 ± 0.3 mmol/L; Blood glucose level prior to administration (normal mice [3]): 6.6 ± 0.4 mmol/L
ISCNGVCSPFDIPPCGTPLCRCIPAGLFVGKCRNPYG (disulfide 15-32, 3-20, 7-22) [SEQ ID No. 36] | 6.2 ± 0.4 | 4.3 ± 0.3 | 3.5 ± 0.2 | 2.8 ± 0.1 | 7.1 ± 0.5 | 
VSCNGVCSPFDMPPCGTSACRCIPAGLFIGYCRNPSG (disulfide 15-32, 3-20, 7-22) [SEQ ID No. 61] | 5.6 ± 0.4 | 4.3 ± 0.3 | 3.6 ± 0.2 | 2.3 ± 0.1 | 6.9 ± 0.4 | 

Source: patent publication US20200038478A1, “POLYPEPTIDE AND COMPOSITION THEREOF FOR TREATING DISEASES OF METABOLIC SYSTEM” (WUHAN GRECTECH CO., LTD., priority 2017, published 2020)
